≈ marks a conversion by molar mass, not a printed value.
tested on: S. aureus 6538P; assay: Broth microdilution MIC, S. aureus 6538P; format: cell-based; conditions: Staphylococcus aureus, broth microdilution, 37 °C, 16–18 h, MIC = lowest concentration inhibiting >90% of growth, read-out: Minimum inhibitory concentration, S. aureus 6538P

Row | Structure (SMILES) | MIC
1 | C=C[C@]1(C)C[C@@H](OC(=O)CSCCN=[N+]=[N-])[C@]2(C)[C@H](C)CC[C@]3(CCC(=O)[C@H]32)[C@@H](C)[C@@H]1O [compound 28] | 0.391 µM (≈ 0.181 µg/mL)
2 | C=C[C@]1(C)C[C@@H](OC(=O)CSCCOCCO)[C@]2(C)[C@H](C)CC[C@]3(CCC(=O)[C@H]32)[C@@H](C)[C@@H]1O [compound 43] | 0.781 µM (≈ 0.377 µg/mL)
3 | C=C[C@]1(C)C[C@@H](OC(=O)CSCCO)[C@]2(C)[C@H](C)CC[C@]3(CCC(=O)[C@H]32)[C@@H](C)[C@@H]1O [compound 25] | 0.781 µM (≈ 0.343 µg/mL)
4 | C=C[C@]1(C)C[C@@H](OC(=O)CSCCOCCN=[N+]=[N-])[C@]2(C)[C@H](C)CC[C@]3(CCC(=O)[C@H]32)[C@@H](C)[C@@H]1O [compound 29] | 0.781 µM (≈ 0.397 µg/mL)
5 | C=C[C@]1(C)C[C@@H](OC(=O)CSCCOCCOCCOCCOCCN=[N+]=[N-])[C@]2(C)[C@H](C)CC[C@]3(CCC(=O)[C@H]32)[C@@H](C)[C@@H]1O [compound 32] | 0.781 µM (≈ 0.5 µg/mL)
6 | C=C[C@]1(C)C[C@@H](OC(=O)CSCCOCCOCCOCCN=[N+]=[N-])[C@]2(C)[C@H](C)CC[C@]3(CCC(=O)[C@H]32)[C@@H](C)[C@@H]1O [compound 31] | 0.781 µM (≈ 0.465 µg/mL)

tested on: vancomycin-resistant Enterococcus (VRE); assay: Broth microdilution MIC, VRE; format: cell-based; conditions: Enterococcus, VRE; broth microdilution, 37 °C, 24 h; MIC = lowest concentration inhibiting >90% of growth; read-out: Minimum inhibitory concentration, VRE

Row | Structure (SMILES) | MIC
7 | C=C[C@]1(C)C[C@@H](OC(=O)CSCCN=[N+]=[N-])[C@]2(C)[C@H](C)CC[C@]3(CCC(=O)[C@H]32)[C@@H](C)[C@@H]1O [compound 28] | 1.56 µM (≈ 0.723 µg/mL)
8 | C=C[C@]1(C)C[C@@H](OC(=O)CSCCOCCO)[C@]2(C)[C@H](C)CC[C@]3(CCC(=O)[C@H]32)[C@@H](C)[C@@H]1O [compound 43] | 3.12 µM (≈ 1.51 µg/mL)
9 | C=C[C@]1(C)C[C@@H](OC(=O)CSCCO)[C@]2(C)[C@H](C)CC[C@]3(CCC(=O)[C@H]32)[C@@H](C)[C@@H]1O [compound 25] | 3.12 µM (≈ 1.37 µg/mL)
10 | C=C[C@]1(C)C[C@@H](OC(=O)CSCCOCCN=[N+]=[N-])[C@]2(C)[C@H](C)CC[C@]3(CCC(=O)[C@H]32)[C@@H](C)[C@@H]1O [compound 29] | 3.12 µM (≈ 1.58 µg/mL)
11 | C=C[C@]1(C)C[C@@H](OC(=O)CSCCOCCOCCOCCOCCN=[N+]=[N-])[C@]2(C)[C@H](C)CC[C@]3(CCC(=O)[C@H]32)[C@@H](C)[C@@H]1O [compound 32] | 3.12 µM (≈ 2 µg/mL)
12 | C=C[C@]1(C)C[C@@H](OC(=O)CSCCOCCOCCOCCN=[N+]=[N-])[C@]2(C)[C@H](C)CC[C@]3(CCC(=O)[C@H]32)[C@@H](C)[C@@H]1O [compound 31] | 3.12 µM (≈ 1.86 µg/mL)

same assay, conditions: MIC ratio to 1

Row | Structure (SMILES) | potency compared to 1, VRE
13 | C=C[C@]1(C)C[C@@H](OC(=O)CSCCN=[N+]=[N-])[C@]2(C)[C@H](C)CC[C@]3(CCC(=O)[C@H]32)[C@@H](C)[C@@H]1O [compound 28] | 8 fold

tested on: E. coli ΔTolC; assay: Broth microdilution MIC, E. coli ΔTolC; format: cell-based; conditions: Escherichia coli, read-out: Minimum inhibitory concentration, E. coli ΔTolC

Row | Structure (SMILES) | MIC
14 | C=C[C@]1(C)C[C@@H](OC(=O)CSCCN=[N+]=[N-])[C@]2(C)[C@H](C)CC[C@]3(CCC(=O)[C@H]32)[C@@H](C)[C@@H]1O [compound 28] | 0.195 µM (≈ 0.0904 µg/mL)
15 | C=C[C@]1(C)C[C@@H](OC(=O)CSCCOCCO)[C@]2(C)[C@H](C)CC[C@]3(CCC(=O)[C@H]32)[C@@H](C)[C@@H]1O [compound 43] | 0.391 µM (≈ 0.189 µg/mL)
16 | C=C[C@]1(C)C[C@@H](OC(=O)CSCCO)[C@]2(C)[C@H](C)CC[C@]3(CCC(=O)[C@H]32)[C@@H](C)[C@@H]1O [compound 25] | 0.391 µM (≈ 0.172 µg/mL)
17 | C=C[C@]1(C)C[C@@H](OC(=O)CSCCOCCN=[N+]=[N-])[C@]2(C)[C@H](C)CC[C@]3(CCC(=O)[C@H]32)[C@@H](C)[C@@H]1O [compound 29] | 0.391 µM (≈ 0.199 µg/mL)
18 | C=C[C@]1(C)C[C@@H](OC(=O)CSCCOCCOCCOCCOCCN=[N+]=[N-])[C@]2(C)[C@H](C)CC[C@]3(CCC(=O)[C@H]32)[C@@H](C)[C@@H]1O [compound 32] | 0.391 µM (≈ 0.25 µg/mL)
19 | C=C[C@]1(C)C[C@@H](OC(=O)CSCCOCCOCCOCCN=[N+]=[N-])[C@]2(C)[C@H](C)CC[C@]3(CCC(=O)[C@H]32)[C@@H](C)[C@@H]1O [compound 31] | 0.391 µM (≈ 0.233 µg/mL)

tested on: E. coli MC1061; assay: Broth microdilution MIC, E. coli MC1061; format: cell-based; conditions: Escherichia coli, MC1061; broth microdilution, 37 °C, 16–18 h; MIC = lowest concentration inhibiting >90% of growth; read-out: Minimum inhibitory concentration, E. coli MC1061

Row | Structure (SMILES) | MIC
20 | C=C[C@]1(C)C[C@@H](OC(=O)CSCCN=[N+]=[N-])[C@]2(C)[C@H](C)CC[C@]3(CCC(=O)[C@H]32)[C@@H](C)[C@@H]1O [compound 28] | 12.5 µM (≈ 5.8 µg/mL)
21 | C=C[C@]1(C)C[C@@H](OC(=O)CSCCOCCO)[C@]2(C)[C@H](C)CC[C@]3(CCC(=O)[C@H]32)[C@@H](C)[C@@H]1O [compound 43] | 6.25 µM (≈ 3.02 µg/mL)
22 | C=C[C@]1(C)C[C@@H](OC(=O)CSCCO)[C@]2(C)[C@H](C)CC[C@]3(CCC(=O)[C@H]32)[C@@H](C)[C@@H]1O [compound 25] | 3.12 µM (≈ 1.37 µg/mL)
23 | C=C[C@]1(C)C[C@@H](OC(=O)CSCCOCCN=[N+]=[N-])[C@]2(C)[C@H](C)CC[C@]3(CCC(=O)[C@H]32)[C@@H](C)[C@@H]1O [compound 29] | 25 µM (≈ 12.7 µg/mL)
24 | C=C[C@]1(C)C[C@@H](OC(=O)CSCCOCCOCCOCCOCCN=[N+]=[N-])[C@]2(C)[C@H](C)CC[C@]3(CCC(=O)[C@H]32)[C@@H](C)[C@@H]1O [compound 32] | 25 µM (≈ 16 µg/mL)
25 | C=C[C@]1(C)C[C@@H](OC(=O)CSCCOCCOCCOCCN=[N+]=[N-])[C@]2(C)[C@H](C)CC[C@]3(CCC(=O)[C@H]32)[C@@H](C)[C@@H]1O [compound 31] | 50 µM (≈ 29.8 µg/mL)

tested on: not listed separately; assay: Microscale solubility by optical density (plate reader); conditions: 37 °C, aqueous buffer, kinetic from dmso stock

Row | Structure (SMILES) | solubility at 1 day
26 | C=C[C@]1(C)C[C@@H](OC(=O)CSCCN=[N+]=[N-])[C@]2(C)[C@H](C)CC[C@]3(CCC(=O)[C@H]32)[C@@H](C)[C@@H]1O [compound 28] | 25 to 50 µM (≈ 11.6 to 23.2 µg/mL)
27 | C=C[C@]1(C)C[C@@H](OC(=O)CSCCOCCO)[C@]2(C)[C@H](C)CC[C@]3(CCC(=O)[C@H]32)[C@@H](C)[C@@H]1O [compound 43] | > 200 µM
28 | C=C[C@]1(C)C[C@@H](OC(=O)CSCCO)[C@]2(C)[C@H](C)CC[C@]3(CCC(=O)[C@H]32)[C@@H](C)[C@@H]1O [compound 25] | > 200 µM
29 | C=C[C@]1(C)C[C@@H](OC(=O)CSCCOCCN=[N+]=[N-])[C@]2(C)[C@H](C)CC[C@]3(CCC(=O)[C@H]32)[C@@H](C)[C@@H]1O [compound 29] | 25 to 50 µM (≈ 12.7 to 25.4 µg/mL)
30 | C=C[C@]1(C)C[C@@H](OC(=O)CSCCOCCOCCOCCOCCN=[N+]=[N-])[C@]2(C)[C@H](C)CC[C@]3(CCC(=O)[C@H]32)[C@@H](C)[C@@H]1O [compound 32] | 100 to 200 µM (≈ 64 to 128 µg/mL)
31 | C=C[C@]1(C)C[C@@H](OC(=O)CSCCOCCOCCOCCN=[N+]=[N-])[C@]2(C)[C@H](C)CC[C@]3(CCC(=O)[C@H]32)[C@@H](C)[C@@H]1O [compound 31] | 100 to 200 µM (≈ 59.6 to 119 µg/mL)

tested on: methicillin-resistant S. aureus (MRSA) ATCC 43300; assay: Broth microdilution MIC, MRSA 43300; format: cell-based, Staphylococcus aureus; conditions: Gram-positive bacteria (S. aureus strains), MIC ratio to 1

Row | Structure (SMILES) | improvement in activity relative to pleuromutilin (1)
32 | C=C[C@]1(C)C[C@@H](OC(=O)CSCCN=[N+]=[N-])[C@]2(C)[C@H](C)CC[C@]3(CCC(=O)[C@H]32)[C@@H](C)[C@@H]1O [compound 28] | 8 fold
33 | C=C[C@]1(C)C[C@@H](OC(=O)CSCCOCCN=[N+]=[N-])[C@]2(C)[C@H](C)CC[C@]3(CCC(=O)[C@H]32)[C@@H](C)[C@@H]1O [compound 29] | 8 fold

same assay, conditions: Staphylococcus aureus, read-out: Minimum inhibitory concentration, MRSA 43300

Row | Structure (SMILES) | MIC
34 | C=C[C@]1(C)C[C@@H](OC(=O)CSCCOCCN=[N+]=[N-])[C@]2(C)[C@H](C)CC[C@]3(CCC(=O)[C@H]32)[C@@H](C)[C@@H]1O [compound 29] | 0.391 µM (≈ 0.199 µg/mL)

same assay, conditions: Staphylococcus aureus; broth microdilution, 37 °C, 16–18 h; MIC = lowest concentration inhibiting >90% of growth; read-out: Minimum inhibitory concentration, MRSA 43300

Row | Structure (SMILES) | MIC
35 | C=C[C@]1(C)C[C@@H](OC(=O)CSCCN=[N+]=[N-])[C@]2(C)[C@H](C)CC[C@]3(CCC(=O)[C@H]32)[C@@H](C)[C@@H]1O [compound 28] | 0.391 µM (≈ 0.181 µg/mL)
36 | C=C[C@]1(C)C[C@@H](OC(=O)CSCCOCCO)[C@]2(C)[C@H](C)CC[C@]3(CCC(=O)[C@H]32)[C@@H](C)[C@@H]1O [compound 43] | 0.781 µM (≈ 0.377 µg/mL)
37 | C=C[C@]1(C)C[C@@H](OC(=O)CSCCO)[C@]2(C)[C@H](C)CC[C@]3(CCC(=O)[C@H]32)[C@@H](C)[C@@H]1O [compound 25] | 0.781 µM (≈ 0.343 µg/mL)
38 | C=C[C@]1(C)C[C@@H](OC(=O)CSCCOCCOCCOCCOCCN=[N+]=[N-])[C@]2(C)[C@H](C)CC[C@]3(CCC(=O)[C@H]32)[C@@H](C)[C@@H]1O [compound 32] | 0.781 µM (≈ 0.5 µg/mL)
39 | C=C[C@]1(C)C[C@@H](OC(=O)CSCCOCCOCCOCCN=[N+]=[N-])[C@]2(C)[C@H](C)CC[C@]3(CCC(=O)[C@H]32)[C@@H](C)[C@@H]1O [compound 31] | 0.781 µM (≈ 0.465 µg/mL)

Source: publication PMC11731290, “Highly Active Oligoethylene Glycol Pleuromutilins via Systematic Linker Synthesis/One-Pot Attachment and a Microscale Solubility Method” (The Journal of Organic Chemistry, 2024)
